# pEC50: −log10 of the molar value.
# Tests used:
# Caco-2 monolayers = assay: Bi-directional permeability, CACO-2; format: in vitro ADME; settings: for Papp B-A / Papp A-B Ratio: Caco-2 efflux ratio
# Procedure: (§1) Caco-2 monolayers were grown to confluence on collagen-coated, microporous, polycarbonate membranes in 12-well Costar Transwell plates. Details of the plates and their certification are shown below. The permeability assay buffer was Hank's Balanced Salt Solution containing 10 mM HEPES and 15 mM glucose at a pH of 7.0±0.2. The dosing solution concentration was 10 μM in assay buffer. At each time point, 1 and 2 hours, a 200-μL aliquot was taken from the receiver chamber and replaced with fresh assay buffer. Cells were dosed on the apical side (A-to-B) or basolateral side (B-to-A) and incubated at 37° C. with 5% CO2 and 90% relative humidity. Each determination was performed in duplicate. The important experimental parameters are outlined below. Permeability through a cell-free (blank) membrane was studied to determine non-specific binding and free diffusion of the compound through the device. Lucifer yellow flux was also measured for each monolayer after being subjected to the test compounds to ensure no damage was inflicted to the cell monolayers during the flux period.
# (§2) All samples were assayed by LC/MS using electrospray ionization. Typical LC/MS conditions are as follows:
# (§3) dCr/dt is the cumulative concentration in the receiver compartment versus time in M s^−1.
# (§4) Vr is the volume of the receiver compartment in cm^3.
# (§5) Vd is the volume of the donor compartment in cm^3.
# (§6) A is the area of the cell monolayer (1.13 cm^2 for 12-well Transwell).
# (§7) C0 is the concentration of the dosing solution in M.
# (§8) Cr^final is the cumulative receiver concentration in M at the end of the incubation period.
# (§9) Cd^final is the concentration of the donor in M at the end of the incubation period.
# [1] = Bi-directional permeability, CACO-2; format: in vitro ADME; settings: human, Caco-2, Papp × 10^−6 cm/s (plate certification)
# Procedure: as §1, §2, §3, §4, §5, §6, §7, §8, §9
# [2] = Aqueous equilibrium solubility in pH 7.4 buffer; settings: pH 7.4 aqueous buffer, room temperature, equilibrium
# Procedure: Equilibrium solubility was measured in pH 7.4 aqueous buffer. The buffer was prepared by adjusting the pH of a 0.07 M solution of NaH2PO4 to pH 7.4 with 10 N NaOH. […] At least 1 mg of powder was combined with 1 mL of buffer to make >1 mg/mL mixture. These samples were shaken for ≧2 hours and left to stand overnight at room temperature. The samples were then filtered through a 0.45-μm Nylon syringe filter that was first saturated with the sample. The filtrate was sampled twice, consecutively. The filtrate was assayed by HPLC against standards prepared in methanol.
# [3] = target: T1, Bombyx mori EcR (VP16 fusion, CVBE switch construct) (Bombyx mori, UniProt P49881); assay: Z3 Assay (HEK-293 cells with CVBE and 6XEcRE LacZ, β-galactosidase reporter); settings: for Fold Induction, Z3 Assay, 3.3 uM: 3.3 uM ligand; for Z3 assay Rel Max FI: maximum fold induction at any concentration relative to that of GS-E ligand; for Z3 assay Rel Max FI / pEC50: HEK-293 Z3 cells; for pEC50: read-out: Z3 assay EC50, β-galactosidase reporter
# T1 sequence (P49881 86-606): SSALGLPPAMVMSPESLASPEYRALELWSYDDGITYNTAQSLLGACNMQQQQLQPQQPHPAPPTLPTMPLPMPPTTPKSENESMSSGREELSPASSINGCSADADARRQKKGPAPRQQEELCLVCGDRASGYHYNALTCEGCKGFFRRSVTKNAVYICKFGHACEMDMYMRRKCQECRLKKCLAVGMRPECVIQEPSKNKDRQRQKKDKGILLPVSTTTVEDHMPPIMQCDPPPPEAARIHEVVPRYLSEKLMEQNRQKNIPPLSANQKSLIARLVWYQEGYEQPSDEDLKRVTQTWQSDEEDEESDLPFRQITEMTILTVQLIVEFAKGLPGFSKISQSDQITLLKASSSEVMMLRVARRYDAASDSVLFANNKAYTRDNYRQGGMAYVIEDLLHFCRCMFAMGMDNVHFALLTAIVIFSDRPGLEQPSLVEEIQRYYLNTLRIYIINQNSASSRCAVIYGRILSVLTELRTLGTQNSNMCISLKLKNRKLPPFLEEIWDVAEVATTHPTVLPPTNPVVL
# T1 sequence (P19793 1-462 partner): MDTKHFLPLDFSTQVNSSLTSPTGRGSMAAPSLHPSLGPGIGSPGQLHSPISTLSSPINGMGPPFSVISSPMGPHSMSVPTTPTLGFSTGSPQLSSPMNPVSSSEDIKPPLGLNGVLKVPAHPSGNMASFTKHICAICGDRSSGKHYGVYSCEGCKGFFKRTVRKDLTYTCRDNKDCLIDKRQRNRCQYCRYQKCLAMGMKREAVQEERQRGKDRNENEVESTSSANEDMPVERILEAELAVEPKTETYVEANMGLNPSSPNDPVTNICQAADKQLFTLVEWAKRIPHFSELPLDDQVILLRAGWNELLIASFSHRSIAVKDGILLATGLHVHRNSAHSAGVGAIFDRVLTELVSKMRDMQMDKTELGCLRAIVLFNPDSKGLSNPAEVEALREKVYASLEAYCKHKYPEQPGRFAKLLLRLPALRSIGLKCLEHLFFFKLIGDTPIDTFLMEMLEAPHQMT
# [4] = Partition coefficient Log (D), 1-octanol / pH 7.4 buffer; format: physicochemical; settings: for Log(D) Octanol/pH 7.4: water-saturated 1-octanol / pH 7.4 buffer, room temperature
# Procedure: The partition coefficient, Log (D), between water-saturated 1-octanol and pH 7.4 buffer was determined for the test compounds. The buffer was prepared as described in section 2. A 12 μl aliquot of a 10 mM stock solution in DMSO was introduced to a vial containing 0.60 mL of octanol and 0.60 mL of buffer at room temperature. Testosterone was also added to a final concentration of 100 μM as an internal control. The solution was vortexed for 60 minutes and centrifuged at 10,000 rpm for 10 minutes. The organic and aqueous layers were removed. Serial dilutions of the organic layer were made with 50% methanol except for the initial dilution, which was made in 100% methanol. Serial dilutions of the aqueous layer were made in the pH 7.4 buffer. The diluted samples were then assayed by LC/MS for the compound as well as for testosterone. The Log of the ratio of peak area responses was calculated to obtain the Log (D). Typical Log D values for testosterone are from 3.0-3.3.
# [5] = Determination of LC Log P (experimental); format: physicochemical; settings: diacylhydrazine log P standards (log P known experimentally)
# Procedure: Liquid chromatography retention times (RT) are measured for each substance using the conditions described below. A linear equation is derived relating RT to log P is developed from the data for the log P standards. The log P for the test compound is calculated from the log P/retention time equation.
# [6] = ligand treated / DMSO treated cells, average of two wells
Molecule,Solubility pH 7.4 [2],Papp Blank (Caco-2 monolayers; Caco-2),"Papp, A-to-B Avg (Caco-2 monolayers; Caco-2)","Papp, A-to-B Rep. 1 (Caco-2 monolayers; Caco-2)","Papp, A-to-B Rep. 2 (Caco-2 monolayers; Caco-2)","Papp, B-to-A Avg (Caco-2 monolayers; Caco-2)","Papp, B-to-A Rep. 1 (Caco-2 monolayers; Caco-2)","Papp, B-to-A Rep. 2 (Caco-2 monolayers; Caco-2)",Log(D) Octanol/pH 7.4 [4],logP [5],further results
"CC(C)NCC(O)COc1cccc2ccccc12 (stereo not shown) [Propranolol, reference compound]",–,–,–,–,–,–,–,–,–,–,"Papp × 10^−6 cm/s (plate certification) (Caco-2 monolayers; human, Caco-2): 19 10^−6 cm/s; Papp [1]: 20 ×10⁻⁶ cm/s"
CC(O)c1ccc(C(=O)NN(C(=O)c2cc(CO)cc(CO)c2)C(C)(C)C)cc1 (stereo not shown) [RG-100021],≧1.0 mg/mL,43.0 10^−6 cm/s,0.22 10^−6 cm/s,0.21 10^−6 cm/s,0.22 10^−6 cm/s,0.93 10^−6 cm/s,0.91 10^−6 cm/s,0.95 10^−6 cm/s,0.8,–,"Significant Efflux (Caco-2 monolayers; Caco-2): No; Fold Induction, Z3 Assay, 33 uM ([3]; 33 uM ligand, ligand treated / DMSO treated cells, average of two wells): 1"
"Cc1cc(C)cc(C(=O)N(NC(=O)c2cccc(O)c2C)C(C)(C)C)c1 [RG-102208, reference compound]",–,–,–,–,–,–,–,–,–,2.9,–
"CCc1c(C(=O)NN(C(=O)c2ccc(F)cc2Cl)C(C)(C)C)ccc2c1OCOC2 [RG-115002, reference compound]",–,–,–,–,–,–,–,–,–,3.5,–
CCc1c(OC)cccc1C(=O)NN(C(=O)c1ccccc1[S+](C)[O-])C(C)(C)C (stereo not shown) [RG-115199],0.0064 mg/mL,23.0 10^−6 cm/s,30.6 10^−6 cm/s,31.1 10^−6 cm/s,30.2 10^−6 cm/s,30.9 10^−6 cm/s,31.0 10^−6 cm/s,30.9 10^−6 cm/s,2.0,–,"Significant Efflux (Caco-2 monolayers; Caco-2): No; Papp B-A / Papp A-B Ratio (Caco-2 monolayers): 1.0; Fold Induction, Z3 Assay, 3.3 uM [3, 6]: 349; Z3 assay Rel Max FI [3]: 0.734; pEC50 ([3]; average of two wells): 5.46"
"CCc1ccc(C(=O)NN(C(=O)c2cc(Cl)cc(Cl)c2)C(C)(C)C)c(F)c1 [RG-115372, reference compound]",–,–,–,–,–,–,–,–,–,5.02,–
CCc1c(OC)cccc1C(=O)NN(C(=O)c1ccccc1S(=O)(=O)O)C(C)(C)C [RG-115555],≧1.0 mg/mL,35.8 10^−6 cm/s,0.18 10^−6 cm/s,0.18 10^−6 cm/s,0.18 10^−6 cm/s,1.61 10^−6 cm/s,1.55 10^−6 cm/s,1.67 10^−6 cm/s,0.0,–,"Papp B-A / Papp A-B Ratio (Caco-2 monolayers): 8.9; Fold Induction, Z3 Assay, 3.3 uM [3, 6]: 1; Z3 assay Rel Max FI [3]: 0.006; pEC50 ([3]; average of two wells): < 4.30"
"C[C@]12CC[C@H]3[C@@H](CCC4=CC(=O)CC[C@@]43C)[C@@H]1CC[C@@H]2O [testosterone, Testosterone, reference compound]",–,–,–,–,–,–,–,–,–,–,"logD ([4]; internal control, octanol / pH 7.4 buffer, read-out: Typical Log D values): 3 to 3.3"
Lucifer Yellow [reference compound],–,–,–,–,–,–,–,–,–,–,"Papp × 10^−6 cm/s (plate certification) (Caco-2 monolayers; Caco-2 plate TW12, first certification column (seed date Jun. 11, 2002)): 0.14 10^−6 cm/s; Papp × 10^−6 cm/s (plate certification) (Caco-2 monolayers; Caco-2 plate TW12, second certification column (seed date Jun. 18, 2002)): 0.12 10^−6 cm/s"

# From patent US9102648B1, “Bioavailable diacylhydrazine ligands for modulating the expression of exogenous genes via an ecdysone receptor complex” (Intrexon Corporation, priority 2003, dated 2015)
